The test system of experiment [1] is HCC38 human breast cancer cells. The experiment can be described thus: MTS assay, HCC38 breast cancer cells. It is filed as cell-based. The conditions noted are these: HCC38, up to a 1 mM concentration. On the procedure:
(§1) Cells were cultured at a density of 2.1×10^3 cells per well in flat bottomed 96-well plates in 100 μl of medium supplemented with 10% fetal bovine serum (FBS), 25 mM HEPES buffer (pH 7.4), Penicillin (100 U/ml) and Streptomycin (100 μg/ml) and incubated at 37° C. in a humidified, 5% CO2 atmosphere for 2 days. The cells were then treated with DMSO or the appropriate drugs for 1 hour, washed thrice with 100 μl phosphate buffered saline (PBS), and incubated in 100 μl of fresh medium. After 2 days, the medium was replace with 120 μl of medium containing 50 μM phenazine ethosulfate (PES) and 317 μg/mL CellTiter 96® Aqueous One Solution Reagent (MTS) (Promega, Madison, Wis.). After 4 hours in culture the cell viability was determined by measuring the absorbance at 490 nm using a Tecan Infinite M1000 plate reader.
(§2) Cells were treated with CDDP or the platinum analog at various concentrations for 1 hour and the viability was determined 48 h post-treatment using the MTS assay.
(§3) This is a table comparison of EC50 (μM) determined from MTS assay data of the various cell lines treated with CDDP or the analog where R=(CH2)3CH3.

Experiment [2] has as its system A549 human lung cancer cells. The experiment can be described thus: MTS cell proliferation assay, A549 lung cancer cells. It is filed as cell-based. The settings on record: for effects in this experimental setting: human cancer cell line setting of b48. On the procedure:
A series of cisplatin analogs of the formula (4,4′-bis[RO]-2,2′-bipyridine)PtCl2 [where, R=—(CH2)nCH3, —(CH2)nOCH3, —(CH2)n[O(CH2)m]yO(CH2)zCH3 (n=1-10; m, y, z=0-10)] were synthesized and characterized using ^1H NMR, ^13C NMR spectroscopy, and elemental analysis. The antitumor activities of these compounds were examined in a lung cancer cell line (A549) using the MTS cell proliferation assay and the results were compared to that of cisplatin and cisplatin derivatives.
as §1
Cells were treated with CDDP or the platinum analogs at various concentrations for 1 hour and the viability was determined 48 h post-treatment using the MTS assay.
Cells were treated with CDDP or the platinum analogs at various concentrations for 48 hour and the viability was determined post-treatment using the MTS assay.
A general note: Tetrazolium assays rely on reduction of a dye to a coloured formazan, in cell work by metabolically active cells.

Experiment [3] has as its system T-47D human breast cancer cells. The experiment can be described thus: MTS assay, T-47D breast cancer cells. Type of experiment: cell-based. The conditions noted are these: up to a 1 mM concentration. On the procedure:
as §1, §2, §3

For experiment [4], the system named is MDA-MB-435 human melanoma cancer cells. The experiment can be described thus: MTS assay, MDA-MB-435 melanoma cancer cells. Type of experiment: cell-based. The settings on record: MDA-MB-435, up to a 1 mM concentration. The procedure:
as §1, §2, §3

Experiment [5] relates to DU-145 human prostate cancer cells. The experiment can be described thus: MTS assay, DU-145 prostate cancer cells. The conditions noted are these: DU-145, up to a 1 mM concentration. It is filed as cell-based. The procedure: as §1, §2, §3
The conditions of experiment [6]: tested on mice; cited from earlier work.
For experiment [7], the system named is MCF7 human breast cancer cells. The experiment can be described thus: MTS assay, MCF7 breast cancer cells. Type of experiment: cell-based. The conditions noted are these: MCF7, up to a 1 mM concentration. On the procedure:
as §1, §2, §3

The text below walks through data of patent publication US8703756B2, “Synthetic procedure and cancer treatment with cisplatin derivatives” (The Board of Regents of the Nevada System of Higher …, priority 2012, dated 2014).

Regarding `N.N.[Cl][Pt][Cl]` [cisplatin, cis-diamminedichloroplatinum], the “effect on the cell line” value in experiment [1], in experiment [3], in experiment [4], in experiment [5] and in experiment [7] was “little or no effect” throughout. The “effectiveness, 48 h treatment” value in experiment [2] (A549, concentrations higher than 500 μM) is “not very effective”. In addition, the “effects in this experimental setting” value in experiment [2] was “lack of effects”. In addition, in experiment [2] (one hour treatment, up to a 1 mM concentration), the “effect on the A549 cells” value is recorded as “no effect”. Also, the “percent increased life span (% ILS)” value in experiment [6] is listed as 65-80%.

As for `N.N.O=C([O-])C1(C(=O)[O-])CCC1.[Pt+2]` [carboplatin], in experiment [2], the “effects in this experimental setting” value is “lack of effects”.

On to Pd(II)(cis-2,2′-bipyridine)(NO3)2, for which the “percent increased life span (% ILS)” value in experiment [6] is reported as 55-70%.

Take `O=C(O)C(=O)O.[NH-][C@@H]1CCCC[C@H]1[NH-].[Pt+2]` [oxaliplatin]: in experiment [2], the “effects in this experimental setting” value is recorded as “lack of effects”.
